Broadly, the IC50 is the concentration at which inhibition is half-maximal.

From ChEMBL document CHEMBL3526017, “Predicting the drug interaction potential of AMG 853, a dual antagonist of the D-prostanoid and chemoattractant receptor-homologous molecule expressed on T helper 2 cells receptors” (Drug Metab Dispos, 2012) come the findings set out here.

SMILES strings stand for the structures.

Data set [1] concerns the target UDP-glucuronosyltransferase 1A4 (Homo sapiens, UniProt P22310). Description: Drug metabolism assessed as human recombinant UGT1A4-mediated compound formation treated with AMG 853 at 10 uM after 30 mins by LC-MS/MS analysis. It is filed as ADME. The following applies: recombinant enzyme, 0.5 h.
In data set [2] the target is T1, UDP-glucuronosyltransferase 1A1 (Homo sapiens, UniProt P22309).
T1 sequence (P22309 whole entry): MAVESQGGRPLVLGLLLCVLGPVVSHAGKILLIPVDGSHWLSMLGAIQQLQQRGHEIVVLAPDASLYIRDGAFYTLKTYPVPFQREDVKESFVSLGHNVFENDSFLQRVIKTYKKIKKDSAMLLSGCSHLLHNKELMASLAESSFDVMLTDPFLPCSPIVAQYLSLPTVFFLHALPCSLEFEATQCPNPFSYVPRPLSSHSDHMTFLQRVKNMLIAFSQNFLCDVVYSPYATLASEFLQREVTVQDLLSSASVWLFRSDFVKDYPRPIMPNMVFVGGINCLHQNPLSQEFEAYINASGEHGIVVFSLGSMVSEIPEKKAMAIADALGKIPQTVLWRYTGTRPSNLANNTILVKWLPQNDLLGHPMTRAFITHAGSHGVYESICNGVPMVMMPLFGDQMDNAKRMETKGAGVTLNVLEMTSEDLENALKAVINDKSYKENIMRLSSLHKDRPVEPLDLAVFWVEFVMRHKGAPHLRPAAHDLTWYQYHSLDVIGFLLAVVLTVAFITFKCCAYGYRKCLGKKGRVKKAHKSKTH
Description: Drug metabolism assessed as human recombinant UGT1A1-mediated compound formation treated with AMG 853 at 10 uM after 30 mins by LC-MS/MS analysis. The class given is ADME. The following applies: recombinant enzyme, 0.5 h.

In data set [3] the target is CYP2C9 (Homo sapiens, UniProt P11712). The experiment in a line: Induction of CYP2C9 in human hepatocytes using diclofenac as substrate at 0.3 to 30 uM treated every 24 hrs for 2 days measured on day 5 by LC-MS/MS analysis relative to control. The class given is ADME, cell-based, Hepatocyte. The following applies: probe diclofenac, read-out: FC.
Data set [4] deals with CYP2C9. Description: Upregulation of CYP2C9 mRNA expression in human hepatocytes at 0.3 to 30 uM treated every 24 hrs for 2 days measured on day 5 relative to control. It is filed as ADME, cell-based, Hepatocyte. The following applies: read-out: FC.
For data set [5], the target named is UDP-glucuronosyltransferase 2B4 (Homo sapiens, UniProt P06133). The experiment in a line: Drug metabolism assessed as human recombinant UGT2B4-mediated (2S,3S,4S,5R,6S)-6-(2-(4-(4-(tert-butylcarbamoyl)-2-(2-chloro-4-cyclopropylphenylsulfonamido)phenoxy)-5-chloro-2-fluorophenyl)acetoxy)-3,4,5-trihydroxytetrahydro-2H-pyran-2-carboxylic acid formation at 10 uM after 30 mins by LC-MS/MS analysis. The following applies: recombinant enzyme, 0.5 h. The class given is ADME.

Data set [6] concerns the target UDP-glucuronosyltransferase 1A6 (Homo sapiens, UniProt P19224). The experiment in a line: Drug metabolism assessed as human recombinant UGT1A6-mediated (2S,3S,4S,5R,6S)-6-(2-(4-(4-(tert-butylcarbamoyl)-2-(2-chloro-4-cyclopropylphenylsulfonamido)phenoxy)-5-chloro-2-fluorophenyl)acetoxy)-3,4,5-trihydroxytetrahydro-2H-pyran-2-carboxylic acid formation at 10 uM after 30 mins by LC-MS/MS analysis. The following applies: recombinant enzyme, 0.5 h. It is filed as ADME.

The nature of data set [7]: Drug metabolism in human liver microsomes assessed as CYP3A5*1/*1-mediated (2S,3S,4S,5R,6S)-6-(2-(4-(4-(tert-butylcarbamoyl)-2-(2-chloro-4-cyclopropylphenylsulfonamido)phenoxy)-5-chloro-2-fluorophenyl)acetoxy)-3,4,5-trihydroxytetrahydro-2H-pyran-2-carboxylic acid formation after 15 mins by LC-MS/MS analysis in presence of UDPGA. It is filed as ADME. Particulars: 0.25 h. Background: Microsomes from liver hold many membrane-bound enzymes, among them those of drug oxidation.

Data set [8] concerns the target CYP1A2 (Homo sapiens, UniProt P05177). Description: Induction of CYP1A2 in human hepatocytes using phenacetin as substrate at 0.3 to 30 uM treated every 24 hrs for 2 days measured on day 5 by LC-MS/MS analysis relative to control. It is filed as ADME, cell-based, Hepatocyte. The following applies: probe phenacetin, read-out: FC.
Data set [9] has as its target T1, UDP-glucuronosyltransferase 1A1. Description: Drug metabolism assessed as human recombinant UGT1A1-mediated (2S,3S,4S,5R,6S)-6-(2-(4-(4-(tert-butylcarbamoyl)-2-(2-chloro-4-cyclopropylphenylsulfonamido)phenoxy)-5-chloro-2-fluorophenyl)acetoxy)-3,4,5-trihydroxytetrahydro-2H-pyran-2-carboxylic acid formation at 10 uM after 30 mins by LC-MS/MS analysis. Particulars: recombinant enzyme, 0.5 h. It is filed as ADME.

Data set [10] has as its target T2, Cytochrome P450 2C8 (Homo sapiens, UniProt P10632).
T2 sequence (P10632 whole entry): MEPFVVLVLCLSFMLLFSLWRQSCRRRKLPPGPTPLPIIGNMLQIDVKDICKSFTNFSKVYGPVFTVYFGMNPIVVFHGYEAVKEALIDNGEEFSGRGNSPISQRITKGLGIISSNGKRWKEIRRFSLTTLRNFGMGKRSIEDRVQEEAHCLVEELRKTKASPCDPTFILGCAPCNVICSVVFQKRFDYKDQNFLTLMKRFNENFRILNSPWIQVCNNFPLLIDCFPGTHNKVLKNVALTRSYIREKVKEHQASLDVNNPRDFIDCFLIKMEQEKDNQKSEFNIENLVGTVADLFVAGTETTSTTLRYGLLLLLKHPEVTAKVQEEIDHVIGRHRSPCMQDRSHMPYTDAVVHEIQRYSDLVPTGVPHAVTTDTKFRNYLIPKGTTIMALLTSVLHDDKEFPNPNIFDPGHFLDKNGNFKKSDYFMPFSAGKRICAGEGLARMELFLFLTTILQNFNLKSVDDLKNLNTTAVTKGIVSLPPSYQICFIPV
The experiment in a line: Inhibition of CYP2C8 in human liver microsomes assessed as paclitaxel 6-hydroxylation after 5 to 30 mins by LC-MS/MS analysis. It is filed as ADME.

In data set [11] the target is UDP-glucuronosyltransferase 1A8 (Homo sapiens, UniProt Q9HAW9). The experiment in a line: Drug metabolism assessed as human recombinant UGT1A8-mediated (2S,3S,4S,5R,6S)-6-(2-(4-(4-(tert-butylcarbamoyl)-2-(2-chloro-4-cyclopropylphenylsulfonamido)phenoxy)-5-chloro-2-fluorophenyl)acetoxy)-3,4,5-trihydroxytetrahydro-2H-pyran-2-carboxylic acid formation at 10 uM after 30 mins by LC-MS/MS analysis. Particulars: recombinant enzyme, 0.5 h. It is filed as ADME.

Data set [12] relates to Liver microsome. The experiment in a line: Drug metabolism in human liver microsomes assessed as 2-(4-(4-(tert-butylcarbamoyl)-2-(2-chloro-4-(1-hydroxycyclopropyl)phenylsulfonamido)phenoxy)-5-chloro-2-fluorophenyl)acetic acid formation at 2 uM after 60 mins by LC-MS/MS analysis in presence of ketoconazole. It is filed as ADME. The following applies: 1 h.

CYP1A2, sequence (P05177 whole entry): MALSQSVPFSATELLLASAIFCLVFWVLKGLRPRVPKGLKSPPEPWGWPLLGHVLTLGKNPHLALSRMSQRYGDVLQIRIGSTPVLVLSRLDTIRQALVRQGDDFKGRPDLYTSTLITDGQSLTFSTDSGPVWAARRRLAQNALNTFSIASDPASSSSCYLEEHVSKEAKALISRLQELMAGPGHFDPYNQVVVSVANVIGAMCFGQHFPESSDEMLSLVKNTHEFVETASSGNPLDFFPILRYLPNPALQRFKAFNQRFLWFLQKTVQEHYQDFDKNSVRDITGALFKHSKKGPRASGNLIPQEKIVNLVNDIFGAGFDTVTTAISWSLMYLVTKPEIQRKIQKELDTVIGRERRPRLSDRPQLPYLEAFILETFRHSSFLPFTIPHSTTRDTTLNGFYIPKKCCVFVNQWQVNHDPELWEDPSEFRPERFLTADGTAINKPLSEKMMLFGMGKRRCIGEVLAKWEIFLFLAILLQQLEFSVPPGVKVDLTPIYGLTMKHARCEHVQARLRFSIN
UDP-glucuronosyltransferase 1A6, sequence (P19224 whole entry): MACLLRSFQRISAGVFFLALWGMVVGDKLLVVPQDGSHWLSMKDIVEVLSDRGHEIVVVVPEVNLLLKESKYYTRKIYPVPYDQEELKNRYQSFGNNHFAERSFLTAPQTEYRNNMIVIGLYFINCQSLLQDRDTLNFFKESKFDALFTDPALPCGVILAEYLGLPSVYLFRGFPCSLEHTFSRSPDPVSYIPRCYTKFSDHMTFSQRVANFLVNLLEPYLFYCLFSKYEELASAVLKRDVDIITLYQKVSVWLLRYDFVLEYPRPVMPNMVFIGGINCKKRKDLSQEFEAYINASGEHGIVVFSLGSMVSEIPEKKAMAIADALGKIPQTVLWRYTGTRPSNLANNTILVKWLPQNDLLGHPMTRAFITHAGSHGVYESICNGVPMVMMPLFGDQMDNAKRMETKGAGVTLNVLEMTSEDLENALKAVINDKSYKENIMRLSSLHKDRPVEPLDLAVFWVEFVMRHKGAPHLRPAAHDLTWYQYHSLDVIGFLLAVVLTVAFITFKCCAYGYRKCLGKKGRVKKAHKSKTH
UDP-glucuronosyltransferase 2B4, sequence (P06133 whole entry): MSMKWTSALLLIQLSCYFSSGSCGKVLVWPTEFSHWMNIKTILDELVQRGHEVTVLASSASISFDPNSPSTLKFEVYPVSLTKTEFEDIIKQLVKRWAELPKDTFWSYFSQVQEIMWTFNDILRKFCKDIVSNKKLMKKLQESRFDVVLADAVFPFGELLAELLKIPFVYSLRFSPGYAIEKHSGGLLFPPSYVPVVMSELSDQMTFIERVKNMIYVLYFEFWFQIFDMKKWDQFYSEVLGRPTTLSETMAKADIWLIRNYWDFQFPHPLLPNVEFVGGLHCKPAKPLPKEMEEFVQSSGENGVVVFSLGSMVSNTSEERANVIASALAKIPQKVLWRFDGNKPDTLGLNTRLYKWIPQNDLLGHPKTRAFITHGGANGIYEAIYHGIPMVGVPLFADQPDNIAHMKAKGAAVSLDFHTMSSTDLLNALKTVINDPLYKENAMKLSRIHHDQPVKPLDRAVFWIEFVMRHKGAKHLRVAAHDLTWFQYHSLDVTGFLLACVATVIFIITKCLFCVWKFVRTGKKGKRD
CYP2C9 (Homo sapiens, UniProt P11712), sequence (P11712 whole entry): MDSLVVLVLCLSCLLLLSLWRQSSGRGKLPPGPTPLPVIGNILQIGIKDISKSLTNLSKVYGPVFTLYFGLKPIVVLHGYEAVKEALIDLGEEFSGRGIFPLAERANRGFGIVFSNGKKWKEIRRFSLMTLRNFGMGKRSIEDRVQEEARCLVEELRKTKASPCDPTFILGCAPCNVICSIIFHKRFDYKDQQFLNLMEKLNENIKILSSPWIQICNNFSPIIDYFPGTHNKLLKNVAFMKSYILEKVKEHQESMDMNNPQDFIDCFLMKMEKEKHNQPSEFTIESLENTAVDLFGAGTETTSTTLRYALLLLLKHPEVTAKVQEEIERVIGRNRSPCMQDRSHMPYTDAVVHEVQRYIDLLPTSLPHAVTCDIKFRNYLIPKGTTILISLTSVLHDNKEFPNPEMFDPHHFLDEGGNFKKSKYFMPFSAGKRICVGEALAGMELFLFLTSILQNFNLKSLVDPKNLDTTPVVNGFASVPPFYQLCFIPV
UDP-glucuronosyltransferase 1A8, sequence (Q9HAW9 whole entry): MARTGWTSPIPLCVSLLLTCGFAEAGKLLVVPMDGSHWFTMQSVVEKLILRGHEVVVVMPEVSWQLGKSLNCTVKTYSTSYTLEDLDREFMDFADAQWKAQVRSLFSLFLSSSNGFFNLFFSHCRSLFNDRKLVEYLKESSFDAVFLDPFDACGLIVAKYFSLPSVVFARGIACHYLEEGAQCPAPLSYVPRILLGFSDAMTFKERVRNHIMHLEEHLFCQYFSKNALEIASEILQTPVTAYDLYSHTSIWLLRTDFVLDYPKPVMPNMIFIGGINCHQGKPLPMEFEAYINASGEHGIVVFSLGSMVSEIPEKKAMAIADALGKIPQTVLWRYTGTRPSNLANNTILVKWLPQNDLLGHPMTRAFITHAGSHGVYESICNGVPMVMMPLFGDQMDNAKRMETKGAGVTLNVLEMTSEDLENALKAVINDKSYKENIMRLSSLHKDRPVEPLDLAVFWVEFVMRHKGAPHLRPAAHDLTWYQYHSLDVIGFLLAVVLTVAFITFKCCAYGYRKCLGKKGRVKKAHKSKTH
UDP-glucuronosyltransferase 1A4, sequence (P22310 whole entry): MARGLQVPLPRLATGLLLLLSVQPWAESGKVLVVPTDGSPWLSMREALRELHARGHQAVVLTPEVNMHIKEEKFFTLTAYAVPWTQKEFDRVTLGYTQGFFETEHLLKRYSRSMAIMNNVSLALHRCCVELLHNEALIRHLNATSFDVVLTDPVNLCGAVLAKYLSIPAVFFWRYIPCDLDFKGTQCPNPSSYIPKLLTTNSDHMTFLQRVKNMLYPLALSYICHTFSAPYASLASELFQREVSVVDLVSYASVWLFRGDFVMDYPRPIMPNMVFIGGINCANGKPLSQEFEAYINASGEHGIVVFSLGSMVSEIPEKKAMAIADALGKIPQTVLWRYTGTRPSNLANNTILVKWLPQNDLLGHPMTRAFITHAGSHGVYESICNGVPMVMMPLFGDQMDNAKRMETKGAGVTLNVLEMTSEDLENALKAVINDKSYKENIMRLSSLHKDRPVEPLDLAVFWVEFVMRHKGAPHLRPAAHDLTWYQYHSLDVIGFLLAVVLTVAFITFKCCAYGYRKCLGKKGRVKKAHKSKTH

For the compound `CC(C)(C)NC(=O)c1ccc(Oc2cc(F)c(CC(=O)O[C@@H]3O[C@H](C(=O)O)[C@@H](O)[C@H](O)[C@H]3O)cc2Cl)c(NS(=O)(=O)c2ccc(C3CC3)cc2Cl)c1`, the Drug metabolism entry in data set [1] and in data set [2] was “metabolite_detected” in each case.
On to `CC(C)(C)NC(=O)c1ccc(Oc2cc(F)c(CC(=O)O)cc2Cl)c(NS(=O)(=O)c2ccc(C3CC3)cc2Cl)c1` [VIDUPIPRANT], for which the fold induction at 48 h, up to 30 µM in data set [3] worked out at 1.4; in [4], 1.7; in data set [8], 1.4. For the same compound, the Drug metabolism entry in [5] was “metabolite_not_detected”; in [6] it was “metabolite_not_detected”; in data set [7], “metabolite_detected”; in [9], “metabolite_detected”; in data set [11], “metabolite_detected”; in [12], “metabolite_not_detected”. For the same compound, the IC50 in data set [10] was found to be 5.4 µM.
